Values quoted from earlier work as cited in patent US9259452B2, “Deacetylase inhibitor therapy” (Celgene Corporation, priority 2006, dated 2016).
Read-outs that look alike come from different tables or passages of the source.

Settings: cited from earlier work; for ECG effects reported: clinical trials

SMILES: O=C(/C=C/c1cccc(S(=O)(=O)Nc2ccccc2)c1)NO [PXD101]
- Supraventricular tachycardia reported (phase I trials): dose limiting toxicity

SMILES: Cc1[nH]c2ccccc2c1CCNCc1ccc(/C=C/C(=O)NO)cc1 [LBH589]
- Patients with QTc prolongation of greater than 500 ms (12 patients treated at higher dose levels): 42%
- Patients with QTc prolongation of greater than 500 ms (of 12 patients treated at higher dose levels): 5

SMILES: O=C(CCCCCCC(=O)Nc1ccccc1)NO [SAHA, Suberoylanilide Hydroxamic Acid]
- ECG effects reported: non-specific T-wave or ST segment abnormalities

SMILES: O=C(/C=C/c1ccc(CN(CCO)CCc2cc3ccccc3[nH]2)cc1)NO [LAQ824]
- Change in QTc interval (77 patients treated): statistically significant increase
- ECG effects reported: non-specific T-wave or ST segment abnormalities
- Patients having QTc prolongation of greater than 60 ms (of 77 patients treated): 10%
- Event in one patient with QTc greater than 500 ms (when re-treated at a lower dose level): torsades de pointes
